Laboratory results published in doi:10.1101/2024.12.25.630315 (bioRxiv, 2024).
Numbered stars: 1 amine (or outer) side, 2 acyl side, 3 side chain; on linkers, the order of the positions; unused ones are H or OH. Bridge positions count the residues as written; N and C are the ends. Square brackets hold non-standard residues; d marks the D form. Primed or numbered codes have the meaning given here. * marks the point of attachment. TATA = O=C(CC[*:1])N1CN(C(=O)CC[*:2])CN(C(=O)CC[*:3])C1; NOTA = O=C(O)CN1CCN(CC(=O)O)CCN(CC(=O)*)CC1; Hyp = O=C(O)[C@@H]1C[C@@H](O)CN1; hArg = N=C(N)NCCCC[C@H](N)C(=O)O; PEG12′ = not defined here

Tests used:
[1] = format: physicochemical
Description: The ^68Ge/^68Ga generator was manually eluted using […] of 0.1M HCl (Ultrapure trace-metal-free) in four different fractions (2.4 mL, 1 mL, 1 mL, and 1.4 mL). […] The reaction mixture was incubated for 12 min at 65 °C in a temperature-controlled heating block and purified on a RP-HPLC system using a semi-preparative C-18 Luna column ([…], 10 × 250 mm Phenomenex, Torrance, CA). The HPLC condition was gradient elution starting with 20% acetonitrile: water (0.1% formic acid) and reaching 60% acetonitrile: water (0.1% formic acid) in 20 min at a flow rate of 5 mL/min. […] The desired radiolabeled fraction was concentrated under a stream of N2 at 60 °C, formulated in 10% EtOH in saline, and used for in vitro and in vivo studies. The whole radiolabeling process was completed in approximately 35 min. Quality control, stability studies, and chemical identity were also performed on the same HPLC system using the same HPLC gradient as described above.

in vivo = settings: male, mouse, iv, 1.85 MBq, total radioactivity
Description: All mouse studies were conducted through Johns Hopkins University Animal Care and Use Committee (ACUC) approved protocols. Protocol M021M175 was approved by Chair, ACUC. Xenografts were established in five-to-six-weeks old, male, non-obese, diabetic, severe-combined immunodeficient gamma (NSG) mice obtained from the Johns Hopkins University Immune Compromised Animal Core.
Mice were injected with cancer cells subcutaneously in […] PBS (top right flank) for all tumor models. Following cell numbers were used: HT1376 (4 M), UC9 (3 M), UC14 (3 M), RT112 (1.5 M), T24(3 M), SCaBER (4 M). Mice with tumor volumes of 100–200 mm^3 were used for all experiments. A minimum of 4 mice were used for all biodistribution studies. A minimum of 7 mice were used in pharmacodynamics experiment to account for greater variability.
To validate imaging studies, ex vivo biodistribution studies were conducted in mice with tumors of size 100–200 mm^3. Mice received ~50 μCi (1.85 MBq) of [^68Ga]AJ647 in […] of 5% ethanol in saline intravenously and mice were sacrificed at 5–180 min after [^68Ga]AJ647 injection for pharmacokinetic evaluation (n=4 per timepoint). In all other studies, 60 min time-point was chosen. Selected tissues (Blood, Skin, Muscle, Bone, Salivary glands, Tumor, Lungs, Heart, Liver, Pancreas, Spleen, Kidneys, Bladder, Testicles) were collected, weighed, counted, and their %IA/g values calculated as described previously (PMID: 37793856). For EV pharmacodynamics studies, fewer organs were harvested to accommodate more number of mice.

T24 cells = assay: In vitro binding of [^68Ga]AJ647 to T24 cells; format: cell-based; settings: ~37 kBq (~1 μCi), 4°C, 1 hour, mean ± SD
Description: […] After incubation, cells were washed three times with ice cold PBS containing 0.1% Tween®20 and counted on an automated gamma counter. All cell radioactivity uptake studies were performed in quadruplicate for each cell line and repeated three times.

human Nectin-4 = molecular target: T1, human Nectin-4 (Homo sapiens, UniProt Q96NY8); assay: Surface plasmon resonance, human Nectin-4; format: binding; settings: SPR Biacore T200, CM5 chip, 25 °C, His-tagged human Nectin-4 captured, PBS-P+1% DMSO, 1:1 kinetics fit; mean±SD n=3
T1 construct: purchased R&D systems 2659-N4–050
T1 sequence (Q96NY8 32-349 limits assumed): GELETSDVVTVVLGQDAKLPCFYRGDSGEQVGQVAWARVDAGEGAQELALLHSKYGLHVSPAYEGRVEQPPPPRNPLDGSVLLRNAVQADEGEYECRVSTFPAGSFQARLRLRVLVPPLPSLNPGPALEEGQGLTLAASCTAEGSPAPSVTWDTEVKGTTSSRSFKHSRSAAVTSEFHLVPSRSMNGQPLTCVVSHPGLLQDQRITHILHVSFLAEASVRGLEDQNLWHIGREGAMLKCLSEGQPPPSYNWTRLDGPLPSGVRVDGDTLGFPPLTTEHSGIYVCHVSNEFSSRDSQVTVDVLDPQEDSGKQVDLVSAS
Description: (§1) The affinity of AJ647 for human and mouse Nectin-4 recombinant proteins were evaluated by SPR. The experiments were conducted using a Biacore T200 instrument with a CM5 chip at 25 °C. The ligands used were His-Tagged human Nectin-4 (R&D systems, catalog # 2659-N4–050, 44 kDa, 0.2 mg/ml stock concentration) and mouse Nectin-4 proteins (R&D systems, catalog # 3116-N4–050, 45 kDa, 0.2 mg/ml stock concentration), which were immobilized onto the CM5 chip. AJ647 (3057.5 Da, 10 mM stock concentration) was used as the analyte, which flowed over the ligand immobilized surface. FC2 and FC4 was used as the experimental flow cell, while FC1 and FC3 served as the reference. Anti-His antibody (1 mg/ml stock concentration) was immobilized on all FCs using standard amine coupling chemistry. […] Human Nectin-4 was captured onto FC2 at a level of ~600 RU, with a 1:20 dilution and 10 μg/ml diluted concentration in PBS-P. Mouse Nectin-4 was captured onto FC4 at a level of 600 RU, with a 1:20 dilution and 10 μg/ml diluted concentration in PBS-P. The theoretical Rmax values were calculated based on the captured response values and are presented in table below, assuming a 1:1 interaction mechanism. […] All association and dissociation kinetics were evaluated by 1:1 kinetics model fitting.

mouse Nectin-4 = molecular target: T2, mouse Nectin-4 (Mus musculus, UniProt Q8R007); assay: Surface plasmon resonance, mouse Nectin-4; format: binding; settings: SPR Biacore T200, CM5 chip, 25 °C, His-tagged mouse Nectin-4 captured, PBS-P+1% DMSO, 1:1 kinetics fit; mean±SD n=3
T2 construct: purchased R&D systems 3116-N4–050
T2 sequence (Q8R007 31-347 limits assumed): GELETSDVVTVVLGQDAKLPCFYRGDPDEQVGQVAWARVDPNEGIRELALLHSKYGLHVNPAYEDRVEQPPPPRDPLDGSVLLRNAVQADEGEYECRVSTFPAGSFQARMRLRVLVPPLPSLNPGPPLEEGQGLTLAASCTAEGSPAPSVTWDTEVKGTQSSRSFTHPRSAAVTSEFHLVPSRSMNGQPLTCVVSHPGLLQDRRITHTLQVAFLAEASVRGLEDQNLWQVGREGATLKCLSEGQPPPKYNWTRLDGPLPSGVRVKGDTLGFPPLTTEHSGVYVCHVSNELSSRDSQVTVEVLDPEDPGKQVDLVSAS
Description: as §1

Nectin-4 = settings: cited from earlier work
Source text: A PEG linker was attached to the N-terminal cysteine residue of AJ632 (Fig. 2A). The free terminal amine was then conjugated to a NOTA chelator, enabling the successful radiolabeling with gallium-68 to produce [^68Ga]AJ647 and its non-radioactive analog [^natGa]AJ647. The radiolabeling process, performed as previously described ([16]), yielded [^68Ga]AJ647 with an 71.2±9.4% decay-corrected yield and 97±0.8% purity (n=20), ach ...

[2] = molecular target: T3, mouse Nectin-4 (recombinant) (mouse, UniProt Q8R007 31-347); assay: SPR
T3 chain: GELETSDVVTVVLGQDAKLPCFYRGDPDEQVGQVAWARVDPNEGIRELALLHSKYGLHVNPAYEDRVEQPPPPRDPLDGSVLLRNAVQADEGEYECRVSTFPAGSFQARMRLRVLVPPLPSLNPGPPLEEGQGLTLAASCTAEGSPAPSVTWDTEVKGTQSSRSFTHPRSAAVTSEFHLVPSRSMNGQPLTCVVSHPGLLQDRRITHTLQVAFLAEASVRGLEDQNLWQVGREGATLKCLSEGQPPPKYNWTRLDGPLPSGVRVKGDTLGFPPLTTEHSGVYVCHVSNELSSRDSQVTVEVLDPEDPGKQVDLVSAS

[3] = molecular target: T4, His-Tagged human Nectin-4 (human, UniProt Q96NY8 32-349); assay: SPR
T4 chain: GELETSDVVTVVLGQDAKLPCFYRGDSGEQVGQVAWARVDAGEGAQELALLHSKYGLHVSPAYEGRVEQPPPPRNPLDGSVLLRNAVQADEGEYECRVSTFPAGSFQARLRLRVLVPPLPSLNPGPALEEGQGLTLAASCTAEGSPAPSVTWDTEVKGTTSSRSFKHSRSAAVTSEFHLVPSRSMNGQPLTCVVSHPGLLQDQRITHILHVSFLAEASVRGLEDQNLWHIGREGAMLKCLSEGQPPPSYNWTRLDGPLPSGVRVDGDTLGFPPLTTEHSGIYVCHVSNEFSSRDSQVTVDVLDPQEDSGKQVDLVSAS

[4] = molecular target: T5, Nectin-4 on urothelial carcinoma cells (human (endogenous in HT1376, UC14, UC9, …, UniProt Q96NY8 32-510)); assay: flow cytometry on cells; competition: HT1376 cells with non-radioactive AJ647 5.4 uM to 0.01 nM for 30 min at 4 °C, washed, then EV-FITC for 30 min at 4 °C; mean fluorescence intensity as percent of 0 nM AJ647; settings: one partner purified
T5 construct: Nectin-4, endogenous on the surface of urothelial carcinoma cell lines; also called cell surface Nectin-4; Nectin-4 receptor; source: endogenous, on HT1376, UC14, UC9, RT112 and SCaBER cells (and their xenografts)
T5 sequence (looked up): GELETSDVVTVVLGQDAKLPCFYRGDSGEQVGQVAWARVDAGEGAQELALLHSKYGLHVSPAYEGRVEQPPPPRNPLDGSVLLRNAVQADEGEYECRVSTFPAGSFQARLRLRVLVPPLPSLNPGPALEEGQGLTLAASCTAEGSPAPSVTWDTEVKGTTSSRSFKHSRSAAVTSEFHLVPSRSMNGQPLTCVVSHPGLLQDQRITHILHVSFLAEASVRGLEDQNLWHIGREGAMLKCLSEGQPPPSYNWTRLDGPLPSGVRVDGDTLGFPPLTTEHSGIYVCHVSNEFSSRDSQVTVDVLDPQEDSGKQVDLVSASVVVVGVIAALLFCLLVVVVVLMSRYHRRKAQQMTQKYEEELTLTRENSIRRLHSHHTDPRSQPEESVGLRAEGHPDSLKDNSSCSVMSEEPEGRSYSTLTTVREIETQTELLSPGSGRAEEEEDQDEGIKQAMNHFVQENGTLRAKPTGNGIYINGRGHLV

For `CSCC[C@@H]1NC(=O)[C@@H]2CSCCC(=O)N3CN(CN(C3)C(=O)CCSC[C@H](NC(=O)CCOCCOCCOCCOCCOCCOCCOCCOCCOCCOCCOCCOCCNC(=O)CN3CCN(CC(=O)O)CCN(CC(=O)O)CC3)C(=O)N3CCC[C@H]3C(=O)N[C@@H](Cc3cccc4ccccc34)C(=O)N[C@@H](CC(=O)O)C(=O)N2)C(=O)CCSC[C@@H](C(N)=O)NC(=O)[C@H](Cc2c[nH]c3ccccc23)NC(=O)[C@@H]2C[C@@H](O)CN2C(=O)[C@@H]2CCCN2C(=O)[C@H]([C@@H](C)O)NC(=O)[C@H](CO)NC(=O)[C@H](Cc2c[nH]c3ccccc23)NC(=O)[C@@H](CC(=O)O)NC(=O)[C@H](CCCCNC(=N)N)NC1=O` [[^68Ga]AJ647, metal not drawn], the “stability of [^68Ga]AJ647 confirmed” value [1] was “up to 3 hours”, the tissue to tissue ratio at 0.25 h (in vivo; NSG) was 1.31 ± 0.41 and the tissue to tissue ratio at 1 h (in vivo; NSG) was 4.6 ± 1.07. It also gave a tissue uptake at 2 h (in vivo; Adrenals %IA/g) of 3.11 ± 0.21 %ID/g, a tissue uptake at 3 h (in vivo; Adrenals %IA/g) of 3.01 ± 0.27 %ID/g and a tissue uptake at 3 h (in vivo; Brain %IA/g) of 0.07 ± 0.01 %ID/g. For the same molecule, the tissue uptake at 3 h (in vivo; Kidney %IA/g) was 24.8 ± 8.74 %ID/g, the tissue uptake at 1 h (in vivo; Large Intestine %IA/g) was 0.25 ± 0.13 %ID/g and the tissue uptake at 2 h (in vivo; Large Intestine %IA/g) was 0.18 ± 0.06 %ID/g. For the same molecule, the tissue uptake at 3 h (in vivo; Large Intestine %IA/g) was 0.28 ± 0.13 %ID/g, the tissue uptake at 1 h (in vivo; Testicles %IA/g) was 0.71 ± 0.24 %ID/g and the “[^68Ga]AJ647 binding (percent incubated activity)” value (T24 cells) was 0.2±0.11 %IA.

With `CSCC[C@@H]1NC(=O)[C@@H]2CSCCC(=O)N3CN(CN(C3)C(=O)CCSC[C@H](NC(=O)CCOCCOCCOCCOCCOCCOCCOCCOCCOCCOCCOCCOCCNC(=O)CN3CCN(CC(=O)O)CCN(CC(=O)O)CC3)C(=O)N3CCC[C@H]3C(=O)N[C@@H](Cc3cccc4ccccc34)C(=O)N[C@@H](CC(=O)O)C(=O)N2)C(=O)CCSC[C@@H](C(N)=O)NC(=O)[C@H](Cc2c[nH]c3ccccc23)NC(=O)[C@@H]2C[C@@H](O)CN2C(=O)[C@@H]2CCCN2C(=O)[C@H]([C@@H](C)O)NC(=O)[C@H](CO)NC(=O)[C@H](Cc2c[nH]c3ccccc23)NC(=O)[C@@H](CC(=O)O)NC(=O)[C@H](CCCCNC(=N)N)NC1=O` [[^natGa]AJ647, metal not drawn] the Kd (human Nectin-4) was 15 ± 10.1 nM and the Kd (mouse Nectin-4) was 14.1 ± 3.4 nM.

In the case of “NH2-PEG12-(Cys-Pro-Nal-Asp-Cys-Met-hArg-dAsp-Trp-Ser-Thr-Pro-Hyp-Trp-Cys)-TATA based cyclization (bicyclic or more) [AJ632]”, the “affinity to Nectin-4” value (Nectin-4) is given as “low nanomolar”.

{NOTA-PEG12′}-CP[Nal]DCM[hArg][dD]WSTP[Hyp]WC-NH2 (linker 1-5-15 via TATA; also: natGa complexed in NOTA) [[^natGa]AJ647] gave a koff [2] of 0.0101 s⁻¹ and a koff [3] of 0.0106 s⁻¹.

For {NOTA-PEG12′}-CP[Nal]DCM[hArg][dD]WSTP[Hyp]WC-NH2 (linker 1-5-15 via TATA) [AJ647], the IC50 [4] was 35 nM.
